Tests used:
[1] = tested on: Ptch+/−Hic+/− medulloblastoma allograft; experiment: Ptch+/−Hic+/− medulloblastoma allograft model, continuous dosing; assay type: in vivo, mouse; conditions: day 47
Text: (§1) Mouse medulloblastoma cells (1.0−5.0×10^6), dissociated directly from tumor fragments originally derived from spontaneously arising medulloblastomas in Ptch+/−p53−/−, Ptch+/−Hic+/− or Ptch+/− mice, were inoculated subcutaneously into the right flank of Harlan nu/nu mice. Treatment was initiated approximately 7-10 days post implantation. Animals were randomized into treatment groups with similar mean tumor volumes that ranged from approximately 250-300 mm3. Tumor volumes (mm3) and body weights (g) were recorded two or three times per week from all groups for analysis. Dose was body weight adjusted at time of dosing. Comparisons between treatment groups was performed using a non-parametric Kruskal-Wallis/Wilcoxon Rank Sum Test.
(§2) Tumors were calipered in two dimensions, and the volumes were calculated using the formula: (length×width2)/2, where length is the longer of the two measurements and width is the shorter one. Percent treatment/control (% T/C) values were calculated using the following formula: % T/C=100×ΔTf−i/ΔCf−i if ΔTf−i>0, % T/T0=100×ΔTf−i/T0 if ΔTf−i<0 (regression). A partial responder (PR) was defined as an animal whose tumor was less than 50% of the initial tumor volume by the end of the study. An animal with no palpable tumor by the end of study is defined as a complete responder (CR).
Treatments started on day 7 post implantation (5 million cells/animal). Compound 1 was administered po at 5 mg/kg bid, 10 mg/kg bid, 20 mg/kg qd, 20 mg/kg bid, 40 mg/kg bid and 80 mg/kg bid for the length of study. Compound 2 was administered at 100 mg/kg bid for the length of study. Vehicle control of Compound 1 was 0.5% methylcellulose 0.5% Tween 80 in water. The initial group size consisted of 8 animals. The vehicle group was taken down 10 days after treatment (tumors greater than 10% of mouse body weight).
Sustained regressions listed in the Table 1 represent number of complete responses still present at the end of study on day 47.
Two additional Smo inhibitors, Compound 3 and Compound 4 were evaluated in follow-up studies in the Ptch+/−Hic+/− model upon continous dosing.

[2] = tested on: Ptch+/−Hic+/− medulloblastoma allograft; experiment: combination of Smo inhibitor and PI3K inhibitor in Ptch+/−Hic+/− medulloblastoma allograft model; assay type: in vivo, mouse
Text: Mouse medulloblastoma cells (1.0-5.0×10^6), dissociated directly from tumor fragments originally derived from spontaneously arising medulloblastomas in Ptch+/-p53-/-, Ptch+/-Hic+/- or Ptch+/- mice, were inoculated subcutaneously into the right flank of Harlan nu/nu mice. Treatment was initiated approximately 7-10 days post implantation. Animals were randomized into treatment groups with similar mean tumor volumes that ranged from approximately 250-300 mm3. Tumor volumes (mm3) and body weights (g) were recorded two or three times per week from all groups for analysis. Dose was body weight adjusted at time of dosing. Comparisons between treatment groups was performed using a non-parametric Kruskal-Wallis/Wilcoxon Rank Sum Test. Tumors were calipered in two dimensions, and the volumes were calculated using the formula: (length×width2)/2, where length is the longer of the two measurements and width is the shorter one. […] A partial responder (PR) was defined as an animal whose tumor was less than 50% of the initial tumor volume by the end of the study. An animal with no palpable tumor by the end of study is defined as a complete responder (CR). Next, a combination of Compound 1 and Compound A was explored in the Ptch+/-Hic+/- medulloblastoma allograft model. […] Animals treated with vehicle control and with compound A had to be sacrificed around day 20 and 25, respectively, because their tumor volume reached 1500 mm3. […] Similar results were obtained for animals treated with Compound 1 alone for the first 10 days, followed by single agent treatment with Compound A (data not shown). […] Next, a combination of Compound 1 and Compound B was explored in the Ptch+/-Hic+/- medulloblastoma allograft model. […] Animals treated with vehicle control and with compound B reached the endpoint around day 12 to 15, respectively, because their tumor volume reached 700 mm3.

[3] = tested on: resistant medulloblastoma tumor cells; experiment: ex-vivo medulloblastoma proliferation assay (3H thymidine, 48 h), resistant tumor cells; assay type: cell-based, mouse; conditions: Mus musculus
Procedure: (§3) The effect of statins (e.g., simvastatin, flustatin) on the proliferation of medulloblastoma cells derived from sensitive and resistant Ptch+/− cells was evaluated by using an “ex-vivo medulloblastoma proliferation assay.” Using Ptch+/−p53−/−, Ptch+/−Hic+/− or Ptch+/− medulloblastoma tumors freshly harvested from allografted nude mice, we have developed a short-term 48 h proliferation assay that enables us to assess the in vitro potency of Smo inhibitors. The read-out for proliferation uses incorporation of 3H thymidine. The assay reflects the in vivo sensitivity of tumor cells to Compound 1.
(§4) The effect of PI3K inhibitors (e.g., compounds such as Compound A) on the proliferation of medulloblastoma cells derived from sensitive and resistant medulloblastoma cells was evaluated by using an “ex-vivo medulloblastoma proliferation assay,” as described above.

[4] = tested on: Cholesterol biosynthesis pathway genes; experiment: Affymetrix mRNA profiling of tumors, cholesterol biosynthesis genes; assay type: in vivo, mouse; conditions: sensitive and resistant tumors
Procedure: (§5) In order to characterize changes in gene expression in sensitive tumors compared to resistant tumors (both of which terms are defined herein), RNA was isolated from sensitive tumors treated with vehicle or Compound 1 for 4 (single dose), 16 (single dose) and 48 hours (three doses) as well as from resistant tumors (that initially had regressed in the presence of Compound 1 (day 13) but then regrew in the presence of drug as described above). Three tumors were analyzed per treatment group: The sensitive tumor group comprises tumors treated with 20 mg/kg of Compound 1 for 4 hours; 16 hours; and 48 hours. The resistant tumor group comprises tumors treated with 10 mg/kg bid and 80 mg/kg bid of Compound 1 for 26 days. mRNA expression in tumor samples was analyzed by Affymetrix profiling. The expression data were analyzed using the GeneGo pathway program, which groups data according to signal transduction pathways.

PI3K pathway genes = experiment: Affymetrix mRNA profiling of tumors, PI3K pathway genes; assay type: in vivo, mouse
Procedure: as §5

[5] = tested on: Hedgehog signaling pathway genes; experiment: Affymetrix mRNA profiling of tumors, Hedgehog pathway genes; assay type: in vivo, mouse
Procedure: as §5

[6] = tested on: sensitive medulloblastoma tumor cells; experiment: ex-vivo medulloblastoma proliferation assay (3H thymidine, 48 h), sensitive tumor cells; assay type: cell-based; conditions: Mus musculus
Procedure: as §3, §4

[7] = tested on: Ptch+/− medulloblastoma allograft; experiment: Ptch+/− medulloblastoma allograft model, continuous dosing; assay type: in vivo, mouse; conditions: day 48
Text: as §1, §2
Treatments started on day 7 post implantation (5 million cells/animal). Compound 1 was administered po at 10 mg/kg qd, 20 mg/kg qd, 40 mg/kg qd, 80 mg/kg qd and 160 mg/kg qd for the length of study. Compound 2 was administered at 100 mg/kg bid for the length of study. Vehicle control of Compound 1 was 0.5% methylcellulose 0.5% Tween 80 in water. The initial group size consisted of 8 animals. The vehicle group was taken down 7 days after treatment (tumors greater than 10% of mouse body weight). Similar resistance was seen to that observed with the Ptc+/−Hic+/− model, with a subset of the complete responders growing back and others showing complete regression (Table 2). Sustained regression listed in Table 2 represent number of complete regressions still present at the end of study on day 48.

- IC50 ([3]; Resistant tumor, Table 3): > 20000 nM
- IC50 ([3]; ptch+/− Hic+/−, Resistant, Table 4): > 20000 nM
- IC50 ([3]; resistant tumors, summary of Table 4): > 20000 nM
- IC50 ([3]; resistant tumors, text b482): > 20000 nM
- IC50 ([6]; Sensitive tumor, Table 3): 3 nM
- IC50 ([6]; ptch+/− Hic+/−, sensitive, Table 4): 2 nM
- IC50 ([6]; sensitive cells, summary of Table 4): 2 to 4 nM
- IC50 ([6]; sensitive tumor cells, text b482): 4 nM
Compound: Cc1c(C(=O)Nc2ccc(N3C[C@@H](C)O[C@@H](C)C3)nc2)cccc1-c1ccc(OC(F)(F)F)cc1 [Compound 1, 2-Methyl-4′-trifluoromethoxy-biphenyl-3-carboxylic acid [6-(cis-2,6-dimethyl-morpholin-4-yl)-pyridin-3-yl]-amide]
- sustained regressions (complete responses still present at end of study) ([1]; 5 mg/kg bid po): 0/8
- sustained regressions (complete responses still present at end of study) ([1]; 10 mg/kg bid po): 1/8
- sustained regressions (complete responses still present at end of study) ([1]; 20 mg/kg bid po): 7/8
- sustained regressions (complete responses still present at end of study) ([1]; 20 mg/kg qd po): 0/8
- sustained regressions (complete responses still present at end of study) ([1]; 40 mg/kg bid po): 3/8
- sustained regressions (complete responses still present at end of study) ([1]; 80 mg/kg bid po): 6/8
- effect on tumor growth ([2]; 40 mg/kg qd, FIG. 6A): initially induced regression but tumors started to regrow
- time to endpoint (tumor volume >1500 mm3) ([2]; 40 mg/kg qd, FIG. 6B): significantly prolonged
- effect on tumor growth ([2]; 80 mg/kg qd, FIG. 7A): initially induced regression but tumors started to regrow
- time to endpoint (tumor volume >700 mm3) ([2]; 80 mg/kg qd, FIG. 7B): significantly prolonged
- expression of genes of the Cholesterol biosynthesis pathway [4]: A similar expression pattern was observed
- PI3K pathway activity (gene expression) (PI3K pathway genes; resistant tumors compared to sensitive tumors): upregulation of PI3K pathway activity was observed in resistant tumors
- expression of genes indicative of PI3K pathway activity (PI3K pathway genes; sensitive tumors, 4, 16 and 48 h): No changes in gene expression were detected
- expression of Hedgehog pathway genes ([5]; resistant tumors, 10 and 80 mg/kg bid, 26 days): no longer sufficiently inhibited the expression of Hedgehog pathway genes
- expression of genes indicative of Hedgehog signaling pathway activity ([5]; sensitive tumors, 20 mg/kg, 4 h, 16 h, 48 h): suppressed in sensitive tumors in a time-dependent manner
- sustained regressions (complete regressions still present at end of study) ([7]; 10 mg/kg qd po): 0/8
- sustained regressions (complete regressions still present at end of study) ([7]; 20 mg/kg qd po): 1/8
- sustained regressions (complete regressions still present at end of study) ([7]; 40 mg/kg qd po): 1/8
- sustained regressions (complete regressions still present at end of study) ([7]; 80 mg/kg qd po): 4/8
- sustained regressions (complete regressions still present at end of study) ([7]; 160 mg/kg qd po): 5/8
